From patent US10800782B2, “Inhibitors of cellular metabolic processes” (Agios Pharmaceuticals, Inc., priority 2016, dated 2020)

Each compound was assayed against T1, MAT2A (Homo sapiens, UniProt P31153) (assay: MAT2A biochemical assay (colorimetric inorganic phosphate detection, PiColorLock)). Conditions: recombinant His6-tagged MAT2A 1 μg/ml; 60 minutes preincubation at 25° C.; L-Met 80 μM, ATP 100 μM; 60 minutes reaction; read at 623 nm; read-out: MAT2A Inhibition Score.
T1 construct: His6; made in house; host or cells: SF9 insect cells
Method in brief: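 His6-tagged human MAT2A (SF9-expressed, 1 μg/ml) converting L-Met and ATP to SAM in Tris pH 8.0, 50 mM KCl, 15 mM MgCl2, 300 uM EDTA, 0.005% BSA; 60 min at room temperature. Released phosphate detected colorimetrically with malachite green phosphomolybdate. Ten-point, three-fold compound dilution series.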

T1 sequence (P31153 whole entry): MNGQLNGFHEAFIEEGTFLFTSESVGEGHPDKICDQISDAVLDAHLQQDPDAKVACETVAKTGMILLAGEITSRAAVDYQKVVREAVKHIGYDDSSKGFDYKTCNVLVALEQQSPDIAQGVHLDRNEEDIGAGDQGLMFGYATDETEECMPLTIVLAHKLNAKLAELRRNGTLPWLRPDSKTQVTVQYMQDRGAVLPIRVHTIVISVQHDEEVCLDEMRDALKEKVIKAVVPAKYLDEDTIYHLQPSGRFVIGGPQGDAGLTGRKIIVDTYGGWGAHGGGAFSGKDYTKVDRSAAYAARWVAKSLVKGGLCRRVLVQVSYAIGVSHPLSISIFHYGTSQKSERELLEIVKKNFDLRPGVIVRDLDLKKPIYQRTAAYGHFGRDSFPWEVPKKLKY

Row | SMILES | IC50
1 | Cc1[nH]c2c(C3=CCC(F)(F)CC3)c(-c3ccccc3)nn2c(=O)c1-c1ccc2ncccc2c1 [Compound 265, 3-(4,4-difluorocyclohex-1-en-1-yl)-5-methyl-2-phenyl-6-(quinolin-6-yl)pyrazolo[1,5-a]pyrimidin-7(4H)-one] | < 100 nM
2 | COc1ccc(-c2c(CO)[nH]c3c(-c4ccccc4)c(-c4ccccc4)nn3c2=O)cc1 [Compound 221, 5-(hydroxymethyl)-6-(4-methoxyphenyl)-2,3-diphenylpyrazolo[1,5-a]pyrimidin-7(4H)-one] | < 100 nM
3 | O=c1c(-c2ccc3c(c2)NCCO3)c(Nc2ccccn2)[nH]c2c(-c3ccccc3)c(-c3ccccc3)nn12 [Compound 197, 6-(3,4-dihydro-2H-benzo[b][1,4]oxazin-6-yl)-2,3-diphenyl-5-(pyridin-2-ylamino) pyrazolo[1,5-a]pyrimidin-7(4H)-one] | < 100 nM
4 | COc1ccc(-c2c(CN)[nH]c3c(-c4ccccc4)c(-c4ccccc4)nn3c2=O)cc1 [Compound 222, 5-(aminomethyl)-6-(4-methoxyphenyl)-2,3-diphenylpyrazolo[1,5-a]pyrimidin-7(4H)-one] | < 100 nM
5 | Cc1[nH]c2c(-c3ccccc3)c(-c3ccccc3)nn2c(=O)c1-c1ccc2c(c1)OCCO2 [Compound 211, 6-(2,3-dihydrobenzo[b][1,4]dioxin-6-yl)-5-methyl-2,3-diphenylpyrazolo[1,5-a]pyrimidin-7(4H)-one] | < 100 nM
6 | CCOC(=O)c1nnc(Nc2[nH]c3c(-c4ccccc4)c(-c4ccccc4)nn3c(=O)c2-c2ccc3ncccc3c2)o1 [Compound 171, ethyl 5-((7-oxo-2,3-diphenyl-6-(quinolin-6-yl)-4,7-dihydropyrazolo[1,5-a]pyrimidin-5-yl)amino)-1,3,4-oxadiazole-2-carboxylate] | < 100 nM
7 | COc1ccc(-c2c(CNC(=O)[C@@H](N)C(C)C)[nH]c3c(-c4ccccc4)c(-c4ccccc4)nn3c2=O)cc1 [Compound 340, (S)-2-amino-N-((6-(4-methoxyphenyl)-7-oxo-2,3-diphenyl-4,7-dihydropyrazolo[1,5-a]pyrimidin-5-yl)methyl)-3-methylbutanamide] | 100 to 1000 nM
8 | Cc1[nH]c2c(-c3ccccc3)c(-c3ccc(O)cc3)nn2c(=O)c1-c1ccc2ncccc2c1 [Compound 242, 2-(4-hydroxyphenyl)-5-methyl-3-phenyl-6-(quinolin-6-yl)pyrazolo[1,5-a]pyrimidin-7(4H)-one] | < 100 nM
9 | Cc1[nH]c2c(-c3ccccc3)c(-c3cc[nH]c3)nn2c(=O)c1-c1ccc2ncccc2c1 [Compound 252, 5-methyl-3-phenyl-2-(1H-pyrrol-3-yl)-6-(quinolin-6-yl)pyrazolo[1,5-a]pyrimidin-7(4H)-one] | < 100 nM
10 | CCc1[nH]c2c(-c3ccccc3)c(-c3ccccc3)nn2c(=O)c1-c1ccc(OC)cc1 [Compound 312, 5-ethyl-6-(4-methoxyphenyl)-2,3-diphenylpyrazolo[1,5-a]pyrimidin-7(4H)-one] | 100 to 1000 nM
11 | COc1ccc(-c2c(Nc3ncnc(N)n3)[nH]c3c(C4=CCCCC4)c(-c4ccccc4)nn3c2=O)cc1 [Compound 164, 5-((4-amino-1,3,5-triazin-2-yl)amino)-3-(cyclohex-1-en-1-yl)-6-(4-methoxyphenyl)-2-phenylpyrazolo[1,5-a]pyrimidin-7(4H)-one] | < 100 nM
12 | COc1ccc(-c2c(Nc3nccn3C)[nH]c3c(-c4ccccc4)c(-c4ccccc4)nn3c2=O)cc1 [Compound 141, 6-(4-methoxyphenyl)-5-(1-methyl-1H-imidazol-2-ylamino)-2,3-diphenylpyrazolo[1,5-a]pyrimidin-7(4H)-one] | < 100 nM
13 | COc1ccc(-c2c(Nc3ncc[nH]3)[nH]c3c(-c4ccccc4)c(-c4ccccc4)nn3c2=O)cc1 [Compound 142, 5-((1H-imidazol-2-yl)amino)-6-(4-methoxyphenyl)-2,3-diphenylpyrazolo[1,5-a]pyrimidin-7(4H)-one] | < 100 nM
14 | O=c1c(-c2ccc3ncccc3c2)c(CO)[nH]c2c(C3=CCCCC3)c(-c3ccccc3)nn12 [Compound 230, 3-(cyclohex-1-en-1-yl)-5-(hydroxymethyl)-2-phenyl-6-(quinolin-6-yl)pyrazolo[1,5-a]pyrimidin-7(4H)-one] | < 100 nM
15 | COc1ccc(-c2c(Nc3ccncn3)[nH]c3c(C4=CCCCC4)c(-c4ccccc4)nn3c2=O)cc1 [Compound 155, 3-(cyclohex-1-en-1-yl)-6-(4-methoxyphenyl)-2-phenyl-5-(pyrimidin-4-ylamino)pyrazolo[1,5-a]pyrimidin-7(4H)-one] | < 100 nM
16 | COc1ccc(-c2c(Nc3nnc(N)s3)[nH]c3c(-c4ccccc4)c(-c4ccccc4)nn3c2=O)cc1 [Compound 145, 5-((5-amino-1,3,4-thiadiazol-2-yl)amino)-6-(4-methoxyphenyl)-2,3-diphenylpyrazolo[1,5-a]pyrimidin-7(4H)-one] | < 100 nM
17 | COc1ccc(-c2c(CO)n(C)c3c(-c4ccccc4)c(-c4ccccc4)nn3c2=O)cc1 [Compound 249, 5-(hydroxymethyl)-6-(4-methoxyphenyl)-4-methyl-2,3-diphenylpyrazolo[1,5-a]pyrimidin-7(4H)-one] | < 100 nM
18 | COc1ccc(-c2c(C(N)=O)[nH]c3c(-c4ccccc4)c(-c4ccccc4)nn3c2=O)cc1 [Compound 315, 6-(4-methoxyphenyl)-7-oxo-2,3-diphenyl-4,7-dihydropyrazolo[1,5-a]pyrimidine-5-carboxamide] | 100 to 1000 nM
19 | COc1ccc(-c2c(Nc3ncccn3)[nH]c3c(-c4ccccc4)c(-c4ccccc4)nn3c2=O)cc1 [Compound 121, 6-(4-methoxyphenyl)-2,3-diphenyl-5-(pyrimidin-2-ylamino)pyrazolo[1,5-a]pyrimidin-7(4H)-one] | < 100 nM
20 | Cc1[nH]c2c(-c3ccccc3)c(-c3ccccc3)nn2c(=O)c1-c1ccc(O)c(O)c1 [Compound 260, 6-(3,4-dihydroxyphenyl)-5-methyl-2,3-diphenylpyrazolo[1,5-a]pyrimidin-7(4H)-one] | < 100 nM
21 | COc1ccc(-c2c(Nc3cnncn3)[nH]c3c(C4=CCCCC4)c(-c4ccccc4)nn3c2=O)cc1 [Compound 162, 5-((1,2,4-triazin-5-yl)amino)-3-(cyclohex-1-en-1-yl)-6-(4-methoxyphenyl)-2-phenylpyrazolo[1,5-a]pyrimidin-7(4H)-one] | < 100 nM
22 | COc1ccc(-c2c(Nc3ccccn3)[nH]c3c(-c4ccccc4)c(-c4ccccn4)nn3c2=O)cc1 [Compound 180, 6-(4-methoxyphenyl)-3-phenyl-2-(pyridin-2-yl)-5-(pyridin-2-ylamino)pyrazolo[1,5-a]pyrimidin-7(4H)-one] | < 100 nM
23 | COc1ccc(-c2c(Nc3ccccn3)[nH]c3c(C4=CCCCC4)c(-c4ccccn4)nn3c2=O)cc1 [Compound 203, 3-(cyclohex-1-en-1-yl)-6-(4-methoxyphenyl)-2-(pyridin-2-yl)-5-(pyridin-2-ylamino)pyrazolo[1,5-a]pyrimidin-7(4H)-one] | < 100 nM
24 | O=c1c(-c2ccc(O)cc2)c(Nc2cc[nH]n2)[nH]c2c(-c3ccccc3)c(-c3ccccc3)nn12 [Compound 193, 5-((1H-pyrazol-3-yl)amino)-6-(4-hydroxyphenyl)-2,3-diphenylpyrazolo[1,5-a]pyrimidin-7(4H)-one] | < 100 nM
25 | NCc1[nH]c2c(C3=CCCCC3)c(-c3ccccc3)nn2c(=O)c1-c1ccc2c(c1)OCCO2 [Compound 226, 5-(aminomethyl)-3-(cyclohex-1-en-1-yl)-6-(2,3-dihydrobenzo[b][1,4]dioxin-6-yl)-2-phenylpyrazolo[1,5-a]pyrimidin-7(4H)-one] | < 100 nM
26 | O=c1c(-c2ccc3nccnc3c2)c(Nc2ccon2)[nH]c2c(C3=CCCCC3)c(-c3ccccc3)nn12 [Compound 177, 3-(cyclohex-1-en-1-yl)-5-(isoxazol-3-ylamino)-2-phenyl-6-(quinoxalin-6-yl)pyrazolo[1,5-a]pyrimidin-7(4H)-one] | < 100 nM
27 | O=C(CO)Nc1[nH]c2c(-c3ccccc3)c(-c3ccccc3)nn2c(=O)c1-c1ccc2ncccc2c1 [Compound 173, 2-hydroxy-N-(7-oxo-2,3-diphenyl-6-(quinolin-6-yl)-4,7-dihydropyrazolo[1,5-a]pyrimidin-5-yl)acetamide] | < 100 nM
28 | Cc1nc2ccc(-c3c(Nc4ccccn4)[nH]c4c(-c5ccccc5)c(-c5ccccc5)nn4c3=O)cc2s1 [Compound 196, 6-(2-methylbenzo[d]thiazol-6-yl)-2,3-diphenyl-5-(pyridin-2-ylamino)pyrazolo[1,5-a]pyrimidin-7(4H)-one] | < 100 nM
